# System: abl kinase
# Assay: abl kinase inhibition assay
# Assay type: biochemical
row,% Inhibition @1 μM Abl [%],SMILES
1,112,Cc1cc2c(F)c(Oc3nc(Nc4cc(C5CC5)[nH]n4)cc(N4CCN(C)CC4)n3)ccc2[nH]1 [Example 10]
2,111,"Cc1cc2c(F)c(Oc3nc(Nc4cc(C5CC5)[nH]n4)cc(N4CCNCC4)n3)ccc2[nH]1 [Example 11, N-(5-cyclopropyl-1H-pyrazol-3-yl)-2-((4-fluoro-2-methyl-1H-indol-5-yl)oxy)-6-(piperazin-1-yl)pyrimidin-4-amine]"
3,112,Cc1cc2c(F)c(Oc3nc(Nc4cc(C5CC5)[nH]n4)cc(N4CCN(CCO)CC4)n3)ccc2[nH]1 [Example 12]
4,112,Cc1cc2c(F)c(Oc3nc(Nc4cc(C5CC5)[nH]n4)cc(N4CCOCC4)n3)ccc2[nH]1 [Example 13]
5,108,Cc1cc2c(F)c(Oc3nc(Nc4cc(C5CC5)[nH]n4)cc(N4CC(O)C4)n3)ccc2[nH]1 [Example 15]
6,103,COC1CCN(c2cc(Nc3cc(C4CC4)[nH]n3)nc(Oc3ccc4[nH]c(C)cc4c3F)n2)C1 (stereo not drawn) [Example 16]
7,108,Cc1cc2c(F)c(Oc3nc(Nc4cc(C5CC5)[nH]n4)cc(N4CCC(N(C)C)C4)n3)ccc2[nH]1 (stereo not drawn) [Example 17]
8,107,CC(=O)N1CCN(c2cc(Nc3cc(C4CC4)[nH]n3)nc(Oc3ccc4[nH]c(C)cc4c3F)n2)CC1 [Example 18]
9,108,Cc1cc2c(F)c(Oc3nc(Nc4cc(C5CC5)[nH]n4)cc(N4CCNC(=O)C4)n3)ccc2[nH]1 [Example 19]
10,107,Cc1cc2c(F)c(Oc3nc(Nc4cc(C5CC5)[nH]n4)cc(N4C[C@@H](C)N[C@@H](C)C4)n3)ccc2[nH]1 [Example 20]
11,107,Cc1cc2c(F)c(Oc3nc(Nc4cc(C5CC5)[nH]n4)cc(N4CCC(O)CC4)n3)ccc2[nH]1 [Example 21]
12,108,Cc1cc2c(F)c(Oc3nc(Nc4cc(C5CC5)[nH]n4)cc(N4CCC(F)CC4)n3)ccc2[nH]1 [Example 22]
13,108,Cc1cc2c(F)c(Oc3nc(Nc4cc(C5CC5)[nH]n4)cc(N4CCN(S(C)(=O)=O)CC4)n3)ccc2[nH]1 [Example 23]
14,108,Cc1cc2c(F)c(Oc3nc(Nc4cc(C5CC5)[nH]n4)cc(N4CCN(c5ccccn5)CC4)n3)ccc2[nH]1 [Example 25]
15,109,Cc1cc2c(F)c(Oc3nc(Nc4cc(C5CC5)[nH]n4)cc(N4CCN(c5cccnc5)CC4)n3)ccc2[nH]1 [Example 26]
16,108,Cc1cc2c(F)c(Oc3nc(Nc4cc(C5CC5)[nH]n4)cc(N4CCN(c5ccncc5)CC4)n3)ccc2[nH]1 [Example 27]
17,108,COCCN1CCN(c2cc(Nc3cc(C4CC4)[nH]n3)nc(Oc3ccc4[nH]c(C)cc4c3F)n2)CC1 [Example 28]
18,110,Cc1cc2c(F)c(Oc3nc(Nc4cc(C5CC5)[nH]n4)cc(N4CCOC(CN(C)C)C4)n3)ccc2[nH]1 (stereo not drawn) [Example 30]
19,115,CCN1CCN(c2cc(Nc3cc(C4CC4)[nH]n3)nc(Oc3ccc4[nH]c(C)cc4c3F)n2)CC1 [Example 31]
20,108,Cc1cc2c(F)c(Oc3nc(Nc4cc(C5CC5)[nH]n4)cc(N4CCN(CC(F)(F)F)CC4)n3)ccc2[nH]1 [Example 38]
21,110,Cc1cc2c(F)c(Oc3nc(Nc4cc(C5CC5)[nH]n4)cc(N4CCOC(CN)C4)n3)ccc2[nH]1 (stereo not drawn) [Example 39]

row,% Inhibition @1 μM Abl [%],SMILES
1,108,CCC1CN(c2cc(Nc3cc(C4CC4)[nH]n3)nc(Oc3ccc4[nH]c(C)cc4c3F)n2)CCN1 (stereo not drawn) [Example 41]
2,110,Cc1cc2c(F)c(Oc3nc(Nc4cc(C5CC5)[nH]n4)cc(N4CCN(CCN(C)C)CC4)n3)ccc2[nH]1 [Example 42]
3,111,Cc1cc2c(F)c(Oc3nc(Nc4cc(C5CC5)[nH]n4)cc(N4CCNC(CO)C4)n3)ccc2[nH]1 (stereo not drawn) [Example 43]
4,94,COCC1CCN(c2cc(Nc3cc(C4CC4)[nH]n3)nc(Oc3ccc4[nH]c(C)cc4c3F)n2)C1 (stereo not drawn) [Example 44]
5,107,Cc1cc2c(F)c(Oc3nc(Nc4cc(C5CC5)[nH]n4)cc(N4CCN(CCF)CC4)n3)ccc2[nH]1 [Example 45]
6,109,C/C=C/c1cc(Nc2cc(N3CCN(C)CC3)nc(Oc3ccc4[nH]c(C)cc4c3F)n2)n[nH]1 [Example 53]
7,108,C/C=C/c1cc(Nc2cc(N3CCN(CCOC)CC3)nc(Oc3ccc4[nH]c(C)cc4c3F)n2)n[nH]1 [Example 54]
8,110,C/C=C/c1cc(Nc2cc(N3CCN(S(C)(=O)=O)CC3)nc(Oc3ccc4[nH]c(C)cc4c3F)n2)n[nH]1 [Example 55]
9,111,C/C=C/c1cc(Nc2cc(N3CCN(C(C)=O)CC3)nc(Oc3ccc4[nH]c(C)cc4c3F)n2)n[nH]1 [Example 56]
10,111,C/C=C/c1cc(Nc2cc(N3CCS(=O)(=O)CC3)nc(Oc3ccc4[nH]c(C)cc4c3F)n2)n[nH]1 [Example 57]
11,112,C/C=C/c1cc(Nc2cc(N3CCC(OC)CC3)nc(Oc3ccc4[nH]c(C)cc4c3F)n2)n[nH]1 [Example 58]
12,112,C/C=C/c1cc(Nc2cc(N3CCC(O)CC3)nc(Oc3ccc4[nH]c(C)cc4c3F)n2)n[nH]1 [Example 59]
13,111,C/C=C/c1cc(Nc2cc(N3CCC(OC)C3)nc(Oc3ccc4[nH]c(C)cc4c3F)n2)n[nH]1 (stereo not drawn) [Example 60]
14,112,C/C=C/c1cc(Nc2cc(N3CCC(O)C3)nc(Oc3ccc4[nH]c(C)cc4c3F)n2)n[nH]1 (stereo not drawn) [Example 61]
15,111,C/C=C/c1cc(Nc2cc(N3CCC(N(CC)CC)C3)nc(Oc3ccc4[nH]c(C)cc4c3F)n2)n[nH]1 (stereo not drawn) [Example 62]
16,112,C/C=C/c1cc(Nc2cc(N3CCOCC3)nc(Oc3ccc4[nH]c(C)cc4c3F)n2)n[nH]1 [Example 67]
17,107,C/C=C/c1cc(Nc2cc(N3CCNCC3)nc(Oc3ccc4[nH]c(C)cc4c3F)n2)n[nH]1 [Example 68]
18,111,C/C=C/c1cc(Nc2cc(N3CCN(CCF)CC3)nc(Oc3ccc4[nH]c(C)cc4c3F)n2)n[nH]1 [Example 74]
19,110,Cc1cc2c(F)c(Oc3nc(Nc4cc(C5CC5)[nH]n4)cc(N4CCN(C)CC4)n3)cc(F)c2[nH]1 [Example 81]
20,106,Cc1cc2c(F)c(Oc3nc(Nc4cc(C5CC5)[nH]n4)cc(N4CCNCC4)n3)cc(F)c2[nH]1 [Example 82]
21,110,Cc1cc2c(F)c(Oc3nc(Nc4cc(C5CC5)[nH]n4)cc(N4CCN(CCO)CC4)n3)cc(F)c2[nH]1 [Example 83]

row,% Inhibition @1 μM Abl [%],SMILES
1,103,Cc1cc2c(F)c(Oc3nc(Nc4cc(C5CC5)[nH]n4)cc(N4CCOCC4)n3)cc(F)c2[nH]1 [Example 84]
2,112,C/C=C/c1cc(Nc2cc(N3CCN(C)CC3)nc(Oc3cc(F)c4[nH]c(C)cc4c3F)n2)n[nH]1 [Example 87]
3,113,C/C=C/c1cc(Nc2cc(N3CCN(CCO)CC3)nc(Oc3cc(F)c4[nH]c(C)cc4c3F)n2)n[nH]1 [Example 88]
4,112,C/C=C/c1cc(Nc2cc(N3CCOCC3)nc(Oc3cc(F)c4[nH]c(C)cc4c3F)n2)n[nH]1 [Example 89]
5,112,C/C=C/c1cc(Nc2cc(N3CCNCC3)nc(Oc3cc(F)c4[nH]c(C)cc4c3F)n2)n[nH]1 [Example 90]
6,111,C/C=C/c1cc(Nc2cc(N3CCC(O)C3)nc(Oc3cc(F)c4[nH]c(C)cc4c3F)n2)n[nH]1 (stereo not drawn) [Example 92]
7,111,C/C=C/c1cc(Nc2cc(N3CCC(OC)C3)nc(Oc3cc(F)c4[nH]c(C)cc4c3F)n2)n[nH]1 (stereo not drawn) [Example 93]
8,111,C/C=C/c1cc(Nc2cc(N3CCC(N(CC)CC)C3)nc(Oc3cc(F)c4[nH]c(C)cc4c3F)n2)n[nH]1 (stereo not drawn) [Example 94]
9,110,C/C=C/c1cc(Nc2cc(N3CCC(O)CC3)nc(Oc3cc(F)c4[nH]c(C)cc4c3F)n2)n[nH]1 [Example 95]
10,110,C/C=C/c1cc(Nc2cc(N3CCC(OC)CC3)nc(Oc3cc(F)c4[nH]c(C)cc4c3F)n2)n[nH]1 [Example 96]
11,111,C/C=C/c1cc(Nc2cc(N3CCN(S(C)(=O)=O)CC3)nc(Oc3cc(F)c4[nH]c(C)cc4c3F)n2)n[nH]1 [Example 98]
12,113,C/C=C/c1cc(Nc2cc(N3CCN(CC)CC3)nc(Oc3cc(F)c4[nH]c(C)cc4c3F)n2)n[nH]1 [Example 99]
13,113,CCN1CCN(c2cc(Nc3cc(C)[nH]n3)nc(Oc3cc(F)c4[nH]c(C)cc4c3F)n2)CC1 [Example 103]
14,112,Cc1cc(Nc2cc(N3CCN(CCO)CC3)nc(Oc3cc(F)c4[nH]c(C)cc4c3F)n2)n[nH]1 [Example 105]
15,109,Cc1cc(Nc2cc(N3CCNCC3)nc(Oc3cc(F)c4[nH]c(C)cc4c3F)n2)n[nH]1 [Example 106]
16,111,Cc1cc(Nc2cc(N3CCOCC3)nc(Oc3cc(F)c4[nH]c(C)cc4c3F)n2)n[nH]1 [Example 107]
17,113,C/C=C/c1cc(Nc2cc(N3CCN(C)CC3)nc(Oc3ccc4[nH]c(C)cc4c3Cl)n2)n[nH]1 [Example 112]
18,115,C/C=C/c1cc(Nc2cc(N3CCN(C)CC3)nc(Oc3ccc4c(cc(C)n4C)c3F)n2)n[nH]1 [Example 120]
19,116,C/C=C/c1cc(Nc2cc(N3CCOCC3)nc(Oc3ccc4c(cc(C)n4C)c3F)n2)n[nH]1 [Example 121]
20,109,Cc1cc2c(F)c(Oc3nc(Nc4cc(C5CC5)[nH]n4)cc(N4CCN(C)CC4)n3)ccc2n1C [Example 122]
21,114,Cc1cc2c(F)c(Oc3nc(Nc4cc(C5CC5)[nH]n4)cc(N4CCOCC4)n3)ccc2n1C [Example 123]
